Patent US20260356817A1, “AMINOPYRIMIDINE AND AMINOTRIAZINE DERIVATIVES AS MYC PROTEIN MODULATORS” (Sanford Burnham Prebys Medical Discovery Institute, priority 2022, published 2026)
Where two headings read alike, the source gives them in different places.

Tested on: Myc
Assay: Myc inhibition assay: Myc expression per cell by anti-Myc immunofluorescence, high-content imaging
Type: cell-based, human (patient-derived medulloblastoma xenograft cells)
Conditions: medulloblastoma PDX cells, 4 h
From the text: To identify Myc inhibitors, cells isolated from patient-derived orthotopic xenografts (PDXs) from patients with Myc-driven medulloblastoma were used. Specifically, PDX cells were propagated by transplantation directly into the cerebellum of immunodeficient (NSG) mice and were never passaged in vitro in order to maintain properties of the tumor from which they were derived. Tumor tissues were isolated from tumor-bearing animals, dissociated into a single-cell suspension, resuspended in serum-free media, and immediately plated in 384 well plates. After overnight recovery, compounds were added to each well, and cells were incubated for 4 hours before being fixed and stained with anti-Myc antibodies and with DAPI to label nuclei. Cells were then analyzed using high-content imaging to determine the levels of Myc expression per cell and IC50 values of the compounds.

[1] = Table 1, read-out: IC50 (Myc inhibition)
[2] = Table 2, read-out: MYC Inhibition IC50

| Structure (SMILES) | IC50 [1] [nM] | IC50 [2] [nM] |
| --- | --- | --- |
| O=C(O)c1cccc(Nc2nccc(-c3ccnc(O)c3)n2)c1 [Compound 196, 3-((4-(2-hydroxypyridin-4-yl)pyrimidin-2-yl)amino)benzoic acid] | 10000 to 100000 | 10000 to 100000 |
| Cn1cc(Nc2nccc(-c3ccc4[nH]cnc4c3)n2)cn1 [Compound 77, 4-(1H-benzo[d]imidazol-5-yl)-N-(1-methyl-1H-pyrazol-4-yl)pyrimidin-2-amine] | 200 to 1000 | 200 to 1000 |
| COc1cc(-c2ccnc(Nc3cncnc3)n2)ccn1 [Compound 179, 4-(2-methoxypyridin-4-yl)-N-(pyrimidin-5-yl)pyrimidin-2-amine] | 10000 to 100000 | 10000 to 100000 |
| c1cc(Nc2nccc(-c3ccc4[nH]cnc4c3)n2)cc(-n2ccnn2)c1 [Compound 259, N-(3-(1H-1,2,3-triazol-1-yl)phenyl)-4-(1H-benzo[d]imidazol-5-yl)pyrimidin-2-amine] | < 200 | < 200 |
| CN(c1cccc(F)c1)c1nccc(-c2ccnc(O)c2)n1 [Compound 237, 4-(2-((3-fluorophenyl)(methyl)amino)pyrimidin-4-yl)pyridin-2-ol] | 10000 to 100000 | 10000 to 100000 |
| Oc1ccc(-c2ccnc(Nc3cc(F)ccn3)n2)nc1 [Compound 170, 6-(2-((4-fluoropyridin-2-yl)amino)pyrimidin-4-yl)pyridin-3-ol] | 1000 to 10000 | 1000 to 10000 |
| Fc1cccc(Nc2nccc(-c3cnc4nccn4c3)n2)c1 [Compound 273, N-(3-fluorophenyl)-4-(imidazo[1,2-a]pyrimidin-6-yl)pyrimidin-2-amine] | 1000 to 10000 | 1000 to 10000 |
| FC(F)(F)c1ccccc1Nc1nccc(-c2ccc3[nH]cnc3c2)n1 [Compound 62, 4-(1H-benzo[d]imidazol-5-yl)-N-(2-(trifluoromethyl)phenyl)pyrimidin-2-amine] | 1000 to 10000 | 1000 to 10000 |
| O=S(=O)(Nc1ccccc1)c1cccc(Nc2nccc(-c3ccc4[nH]cnc4c3)n2)c1 [Compound 23, 3-((4-(1H-benzo[d]imidazol-5-yl)pyrimidin-2-yl)amino)-N-phenylbenzenesulfonamide] | 1000 to 10000 | 1000 to 10000 |
| COc1ccccc1Nc1nccc(-c2ccc3[nH]cnc3c2)n1 [Compound 61, 4-(1H-benzo[d]imidazol-5-yl)-N-(2-methoxyphenyl)pyrimidin-2-amine] | 1000 to 10000 | 1000 to 10000 |
| CNC(=O)c1cccc(Nc2nccc(-c3ccc4[nH]cnc4c3)n2)c1 [Compound 42, 3-((4-(1H-benzo[d]imidazol-5-yl)pyrimidin-2-yl)amino)-N-methylbenzamide] | 200 to 1000 | 200 to 1000 |
| Oc1ncc(-c2ccnc(Nc3cccc(F)c3)n2)s1 [Compound 181, 5-(2-((3-fluorophenyl)amino)pyrimidin-4-yl)thiazol-2-ol] | 200 to 1000 | 200 to 1000 |
| O=C(O)c1cccc(Nc2nccc(-c3ccc4[nH]cnc4c3)n2)c1 [Compound 28, 3-((4-(1H-benzo[d]imidazol-5-yl)pyrimidin-2-yl)amino)benzoic acid] | 1000 to 10000 | 1000 to 10000 |
| FC(F)(F)c1cc(Nc2nccc(-c3ccc4[nH]cnc4c3)n2)ccc1Cl [Compound 89, 4-(1H-benzo[d]imidazol-5-yl)-N-(4-chloro-3-(trifluoromethyl)phenyl)pyrimidin-2-amine] | 1000 to 10000 | 1000 to 10000 |
| COCCNc1cccc(Nc2nccc(-c3ccc4[nH]cnc4c3)n2)c1 [Compound 47, N^1-(4-(1H-benzo[d]imidazol-5-yl)pyrimidin-2-yl)-N^3-(2-methoxyethyl)benzene-1,3-diamine] | 200 to 1000 | 200 to 1000 |
| Oc1ccc(Oc2ccnc(Nc3cccc(F)c3)n2)cn1 [Compound 110, 5-((2-((3-fluorophenyl)amino)pyrimidin-4-yl)oxy)pyridin-2-ol] | 1000 to 10000 | 1000 to 10000 |
| FC(F)(F)c1cccc(Nc2nccc(-c3ccc4[nH]nnc4c3)n2)c1 [Compound 139, 4-(1H-Benzo[d][1,2,3]triazol-5-yl)-N-(3-(trifluoromethyl)phenyl)pyrimidin-2-amine] | 200 to 1000 | 200 to 1000 |
| COc1cccc(-c2ccnc(N(C)c3ccccc3)n2)n1 [Compound 227, 4-(6-methoxypyridin-2-yl)-N-methyl-N-phenylpyrimidin-2-amine] | 10000 to 100000 | 10000 to 100000 |
| CC(C)(C)c1ccc(Nc2nccc(-c3ccc4[nH]cnc4c3)n2)cc1 [Compound 72, 4-(1H-benzo[d]imidazol-5-yl)-N-(4-(tert-butyl)phenyl)pyrimidin-2-amine] | 1000 to 10000 | 1000 to 10000 |
| c1csc(Nc2nccc(-c3ccc4[nH]cnc4c3)n2)c1 [Compound 84, 4-(1H-benzo[d]imidazol-5-yl)-N-(thiophen-2-yl)pyrimidin-2-amine] | 1000 to 10000 | 1000 to 10000 |
| COc1ccnc(-c2ccnc(Nc3cccc(F)c3)n2)c1 [Compound 193, N-(3-fluorophenyl)-4-(4-methoxypyridin-2-yl)pyrimidin-2-amine] | 10000 to 100000 | 10000 to 100000 |

| Structure (SMILES) | IC50 [1] [nM] | IC50 [2] [nM] |
| --- | --- | --- |
| c1cc(-c2ccc3[nH]cnc3c2)nc(Nc2cnoc2)n1 [Compound 56, N-(4-(1H-benzo[d]imidazol-5-yl)pyrimidin-2-yl)isoxazol-4-amine] | 200 to 1000 | 200 to 1000 |
| c1cc(Nc2nccc(-c3ccc4[nH]cnc4c3)n2)cc(N2CCOCC2)c1 [Compound 102, 4-(1H-benzo[d]imidazol-5-yl)-N-(3-morpholinophenyl)pyrimidin-2-amine] | < 200 | < 200 |
| Cc1cc(Nc2nccc(-c3cnc4nc[nH]c4c3)n2)ccc1F [Compound 135, N-(4-fluoro-3-methylphenyl)-4-(1H-imidazo[4,5-b]pyridin-6-yl)pyrimidin-2-amine] | < 200 | < 200 |
| CC(C)(C)c1cccc(Nc2nccc(-c3ccnc(O)c3)n2)c1 [Compound 149, 4-(2-((3-(tert-butyl)phenyl)amino)pyrimidin-4-yl)pyridin-2-ol] | 200 to 1000 | 200 to 1000 |
| O=c1[nH]c2ccc(-c3ccnc(Nc4cccc(F)c4)n3)cc2[nH]1 [Compound 117, 5-(2-((3-fluorophenyl)amino)pyrimidin-4-yl)-1,3-dihydro-2H-benzo[d]imidazol-2-one] | 10000 to 100000 | 10000 to 100000 |
| FC(F)c1cccc(Nc2nccc(-c3ccc4nc[nH]c4c3)n2)c1 [Compound 280, 4-(1H-benzo[d]imidazol-5-yl)-N-(3-(difluoromethyl)phenyl)pyrimidin-2-amine] | < 200 | < 200 |
| COc1cc(-c2ncnc(N(C)c3ccccc3)n2)ccn1 [Compound 216, 4-(2-methoxypyridin-4-yl)-N-methyl-N-phenyl-1,3,5-triazin-2-amine] | 10000 to 100000 | 10000 to 100000 |
| Fc1cccc(Nc2nccc(-c3ccc4[nH]ncc4c3)n2)c1 [Compound 165, N-(3-Fluorophenyl)-4-(1H-indazol-5-yl)pyrimidin-2-amine] | 1000 to 10000 | 1000 to 10000 |
| N#Cc1ccc(Nc2nccc(-c3ccc4[nH]cnc4c3)n2)cc1 [Compound 99, 4-((4-(1H-benzo[d]imidazol-5-yl)pyrimidin-2-yl)amino)benzonitrile] | 200 to 1000 | 200 to 1000 |
| Oc1cc(-c2ccnc(Nc3cccc(C(F)(F)F)c3)n2)ccn1 [Compound 241, 4-(2-((3-(trifluoromethyl)phenyl)amino)pyrimidin-4-yl)pyridin-2-ol] | 200 to 1000 | 200 to 1000 |
| COc1ccc(Oc2ccnc(Nc3cccc(F)c3)n2)cn1 [Compound 124] | 10000 to 100000 | 10000 to 100000 |
| FC(F)(F)c1ccc(Nc2nccc(-c3ccc4[nH]cnc4c3)n2)cc1 [Compound 266, 4-(1H-benzo[d]imidazol-5-yl)-N-(4-(trifluoromethyl)phenyl)pyrimidin-2-amine] | 1000 to 10000 | 1000 to 10000 |
| COc1cncc(-c2ccnc(Nc3ccccc3)n2)c1 [Compound 228, 4-(5-methoxypyridin-3-yl)-N-phenylpyrimidin-2-amine] | 1000 to 10000 | 1000 to 10000 |
| COc1cc(-c2ccnc(Nc3ccncn3)n2)ccn1 [Compound 177, 4-(2-methoxypyridin-4-yl)-N-(pyrimidin-4-yl)pyrimidin-2-amine] | 10000 to 100000 | 10000 to 100000 |
| Oc1cc(-c2ncnc(Nc3ccccc3)n2)ccn1 [Compound 233, 4-(4-(phenylamino)-1,3,5-triazin-2-yl)pyridin-2-ol] | 1000 to 10000 | 1000 to 10000 |
| FC(F)(F)c1cccc(Nc2ncnc(-c3cnc4nc[nH]c4c3)n2)c1 [Compound 105, 4-(1H-Imidazo[4,5-b]pyridin-6-yl)-N-(3-(trifluoromethyl)phenyl)-1,3,5-triazin-2-amine] | < 200 | < 200 |
| FC(F)(F)c1cncc(Nc2nccc(-c3cnc4nc[nH]c4c3)n2)c1 [Compound 106, 4-(1H-imidazo[4,5-b]pyridin-6-yl)-N-(5-(trifluoromethyl)pyridin-3-yl)pyrimidin-2-amine] | < 200 | < 200 |
| CC(C)(C)n1cc(Nc2nccc(-c3ccc4nc[nH]c4c3)n2)cn1 [Compound 276, 4-(1H-benzo[d]imidazol-6-yl)-N-(1-(tert-butyl)-1H-pyrazol-4-yl)pyrimidin-2-amine] | 200 to 1000 | 200 to 1000 |
| FC(F)(F)c1cncc(Nc2nccc(-c3ccc4[nH]cnc4c3)n2)c1 [Compound 14, 4-(1H-benzo[d]imidazol-5-yl)-N-(5-(trifluoromethyl)pyridin-3-yl)pyrimidin-2-amine] | 10000 to 100000 | 10000 to 100000 |
| FC(F)(F)c1nnc(Nc2nccc(-c3ccc4[nH]cnc4c3)n2)s1 [Compound 58, N-(4-(1H-benzo[d]imidazol-5-yl)pyrimidin-2-yl)-5-(trifluoromethyl)-1,3,4-thiadiazol-2-amine] | 1000 to 10000 | 1000 to 10000 |
